Source: patent US20220306647A1, “NOVEL INDOLE-2-CARBOXAMIDES ACTIVE AGAINST THE HEPATITUS B VIRUS (HBV)” (AICURIS GMBH & CO. KG, priority 2019, published 2022)

target: T1, HBV core protein (C-terminal truncated core protein, 149 amino acids of the N-terminal assembly domain, BODIPY-FL labelled) (UniProt P03146); test: Biochemical capsid assembly assay (fluorescence quenching); settings: assembly started with NaCl, fluorescence read after 6 min, read-out: Assembly activity
T1 construct: fused on or other part: A single cysteine added after residue 149, at position 150; It carries the BODIPY-FL maleimide label
Description: The screening for assembly effector activity was done based on a fluorescence quenching assay published by Zlotnick et al. (2007). The C-terminal truncated core protein containing 149 amino acids of the N-terminal assembly domain fused to a unique cysteine residue at position 150 and was expressed in E. coli using the pET expression system (Merck Chemicals, Darmstadt). Purification of core dimer protein was performed using a sequence of size exclusion chromatography steps. In brief, the cell pellet from 1 L BL21 (DE3) Rosetta2 culture expressing the coding sequence of core protein cloned NdeI/XhoI into expression plasmid pET21b was treated for 1 h on ice with a native lysis buffer (Qproteome Bacterial Protein Prep Kit; Qiagen, Hilden). After a centrifugation step the supernatant was precipitated during 2 h stirring on ice with 0.23 g/ml of solid ammonium sulfate. Following further centrifugation the resulting pellet was resolved in buffer A (100 mM Tris, pH 7.5; 100 mM NaCl; 2 mM DTT) and was subsequently loaded onto a buffer A equilibrated CaptoCore 700 column (GE HealthCare, Frankfurt). The column flow through containing the assembled HBV capsid was dialyzed against buffer N (50 mM NaHCO3 pH 9.6; 5 mM DTT) before urea was added to a final concentration of 3M to dissociate the capsid into core dimers for 1.5 h on ice. The protein solution was then loaded onto a 1L Sephacryl S300 column. After elution with buffer N core dimer containing fractions were identified by SDS-PAGE and subsequently pooled and dialyzed against 50 mM HEPES pH 7.5; 5 mM DTT. To improve the assembly capacity of the purified core dimers a second round of assembly and disassembly starting with the addition of 5 M NaCl and including the size exclusion chromatography steps described above was performed. From the last chromatography step core dimer containing fractions were pooled and stored in aliquots at concentrations between 1.5 to 2.0 mg/ml at −80° C.
Immediately before labelling the core protein was reduced by adding freshly prepared DTT in a final concentration of 20 mM. After 40 min incubation on ice storage buffer and DTT was removed using a Sephadex G-25 column (GE HealthCare, Frankfurt) and 50 mM HEPES, pH 7.5. For labelling 1.6 mg/ml core protein was incubated at 4° C. and darkness overnight with BODIPY-FL maleimide (Invitrogen, Karlsruhe) in a final concentration of 1 mM. After labelling the free dye was removed by an additional desalting step using a Sephadex G-25 column. Labelled core dimers were stored in aliquots at 4° C. In the dimeric state the fluorescence signal of the labelled core protein is high and is quenched during the assembly of the core dimers to high molecular capsid structures. The screening assay was performed in black 384 well microtiter plates in a total assay volume of 10 μl using 50 mM HEPES pH 7.5 and 1.0 to 2.0 μM labelled core protein. Each screening compound was added in 8 different concentrations using a 0.5 log-unit serial dilution starting at a final concentration of 100 μM, 31.6 μM or 10 μM, In any case the DMSO concentration over the entire microtiter plate was 0.5%. The assembly reaction was started by the injection of NaCl to a final concentration of […] which induces the assembly process to approximately 25% of the maximal quenched signal. 6 min after starting the reaction the fluorescence signal was measured using a Clariostar plate reader (BMG Labtech, Ortenberg) with an excitation of 477 nm and an emission of 525 nm. As 100% and 0% assembly control HEPES buffer containing 2.5 M and 0 M NaCl was used. Experiments were performed thrice in triplicates. EC50 values were calculated by non-linear regression analysis using the Graph Pad Prism 6 software (GraphPad Software, La Jolla, USA).

T1 sequence (P03146 whole entry, the tested form may be a part): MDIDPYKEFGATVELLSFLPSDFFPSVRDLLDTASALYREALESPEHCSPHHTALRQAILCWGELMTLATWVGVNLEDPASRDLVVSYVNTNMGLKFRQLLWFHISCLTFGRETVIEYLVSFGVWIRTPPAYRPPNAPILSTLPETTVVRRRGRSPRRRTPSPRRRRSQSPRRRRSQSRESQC

Structure (SMILES) | IC50
O=C(c1cc2c(F)c(F)ccc2[nH]1)N1CCc2nn3c(c2C1)C(=O)N(CCO)C1(CC3)CC1 [Example 120, 4′-(4,5-difluoro-1H-indole-2-carbonyl)-13′-(2-hydroxyethyl)-4′, 8′,9′,13′-tetraazaspiro[cyclopropane-1,12′-tricyclo[7.5.0.0^2,7]tetradecane]-1′,7′-dien-14′-one] | < 5 µM
O=C(c1cc2cc(F)c(F)cc2[nH]1)N1CCc2nn3c(c2C1)C(=O)N(CCO)C1(CC3)CC1 [Example 121, 4′-(5,6-difluoro-1H-indole-2-carbonyl)-13′-(2-hydroxyethyl)-4′, 8′,9′,13′-tetraazaspiro[cyclopropane-1,12′-tricyclo[7.5.0.0^2,7]tetradecane]-1′,7′-dien-14′-one] | < 5 µM
O=C(c1cc2cc(F)c(Cl)cc2[nH]1)N1CCc2nn3c(c2C1)C(=O)N(CCO)C1(CC3)CC1 [Example 122, 4′-(6-chloro-5-fluoro-1H-indole-2-carbonyl)-13′-(2-hydroxyethyl)-4′,8′,9′,13′-tetraazaspiro[cyclopropane-1,12′-tricyclo[7.5.0.0^2,7]tetradecane]-1′,7′-dien-14′-one] | < 5 µM
COCCN1C(=O)c2c3c(nn2CCC12CC2)CCN(C(=O)c1cc2ccccc2[nH]1)C3 [Example 123, 4′-(1H-indole-2-carbonyl)-13′-(2-methoxyethyl)-4′, 8′,9′,13′-tetraazaspiro[cyclopropane-1,12′-tricyclo[7.5.0.0^2,7]tetradecane]-1′,7′-dien-14′-one] | < 5 µM
CN(C)CCN1C(=O)c2c3c(nn2CCC12CC2)CCN(C(=O)c1cc2ccccc2[nH]1)C3 [Example 124, 13′-[2-(dimethylamino)ethyl]-4′-(1H-indole-2-carbonyl)-4′,8′,9′,13′-tetraazaspiro[cyclopropane-1,12′-tricyclo[7.5.0.0^2,7]tetradecane]-1′,7′-dien-14′-one] | 5 to 10 µM
CN1CCN(CCN2C(=O)c3c4c(nn3CCC23CC3)CCN(C(=O)c2cc3ccccc3[nH]2)C4)CC1 [Example 125, 4′-(1H-indole-2-carbonyl)-13′-[2-(4-methylpiperazin-1-yl)ethyl]-4′,8′,9′,13′-tetraazaspiro[cyclopropane-1,12′-tricyclo[7.5.0.0^2,7]tetradecane]-1′,7′-dien-14′-one] | < 5 µM
O=C(NC1(COC(F)F)CC1)c1onc2c1CN(C(=O)c1cc3ccccc3[nH]1)CC2 [Example 132, N-{1-[(difluoromethoxy)methyl]cyclopropyl}-5-(1H-indole-2-carbonyl)-4H,5H,6H,7H-[1,2]oxazolo[4,3-c]pyridine-3-carboxamide] | < 5 µM
O=C(NC1(COC(F)F)CC1)c1onc2c1CN(C(=O)c1cc3c(Cl)cccc3[nH]1)CC2 [Example 133, 5-(4-chloro-1H-indole-2-carbonyl)-N-{1-[(difluoromethoxy)methyl]cyclopropyl}-4H,5H,6H,7H-[1,2]oxazolo[4,3-c]pyridine-3-carboxamide] | < 5 µM
O=C(c1cc2ccccc2[nH]1)N1CCc2nn3c(c2C1)C(=O)N(CCN1CCOCC1)C1(CC3)CC1 [Example 134, 4′-(1H-indole-2-carbonyl)-13′-[2-(morpholin-4-yl)ethyl]-4′,8′,9′,13′-tetraazaspiro[cyclopropane-1,12′-tricyclo[7.5.0.0^2,7]tetradecane]-1′,7′-dien-14′-one] | < 5 µM
CN(C(=O)c1n[nH]c2c1CN(C(=O)c1cc3cc(F)c(Cl)cc3[nH]1)CC2)C1(c2ncc(C(=O)O)cn2)CC1 [Example 136, 2-{1-[N-methyl-5-(6-chloro-5-fluoro-1H-indole-2-carbonyl)-2H,4H,5H,6H,7H-pyrazolo[4,3-c]pyridine-3-amido]cyclopropyl}pyrimidine-5-carboxylic acid] | < 5 µM
O=C(O)c1ccc(C2(NC(=O)c3cnn4c3CN(C(=O)c3cc5ccccc5[nH]3)CC4)CC2)cc1 [Example 137, 4-{1-[5-(1H-indole-2-carbonyl)-4H,5H,6H,7H-pyrazolo[1,5-a]pyrazine-3-amido]cyclopropyl}benzoic acid] | < 5 µM
C[C@@H](NC(=O)c1ncn2c1CN(C(=O)c1cc3ccccc3[nH]1)CC2)C(F)(F)F [Example 138, 7-(1H-indole-2-carbonyl)-N-[(2R)-1,1,1-trifluoropropan-2-yl]-5H,6H,7H,8H-imidazo[1,5-a]pyrazine-1-carboxamide] | < 5 µM
CN1CCCn2nc3c(c2C1=O)CN(C(=O)c1cc2ccccc2[nH]1)CC3 [Example 139, 4-(1H-indole-2-carbonyl)-13-methyl-4,8,9,13-tetraazatricyclo[7.5.0.0^2,7]tetradeca-1,7-dien-14-one] | < 5 µM
O=C(c1cc2ccccc2[nH]1)N1CCc2nn3c(c2C1)C(=O)N(CCO)C1(CC1)C3 [Example 140, 4′-(2-hydroxyethyl)-12′-(1H-indole-2-carbonyl)-4′,7′,8′,12′-tetraazaspiro[cyclopropane-1,5′-tricyclo[7.4.0.0^2,7]tridecane]-1′,8′-dien-3′-one] | < 5 µM
O=C(NC1(COC(F)F)CC1)c1onc2c1CN(C(=O)c1cc3cc(F)c(F)cc3[nH]1)CC2 [Example 141, 5-(5,6-difluoro-1H-indole-2-carbonyl)-N-{1-[(difluoromethoxy)methyl]cyclopropyl}-4H,5H,6H,7H-[1,2]oxazolo[4,3-c]pyridine-3-carboxamide] | < 5 µM
O=C(NC1(COC(F)F)CC1)c1onc2c1CN(C(=O)c1cc3c(F)c(F)ccc3[nH]1)CC2 [Example 143, 5-(4,5-difluoro-1H-indole-2-carbonyl)-N-{1-[(difluoromethoxy)methyl]cyclopropyl}-4H,5H,6H,7H-[1,2]oxazolo[4,3-c]pyridine-3-carboxamide] | < 5 µM
O=C(NC1(COC(F)F)CC1)c1onc2c1CN(C(=O)c1cc3cc(F)c(Cl)cc3[nH]1)CC2 [Example 144, 5-(6-chloro-5-fluoro-1H-indole-2-carbonyl)-N-{1-[(difluoromethoxy)methyl]cyclopropyl}-4H,5H,6H,7H-[1,2]oxazolo[4,3-c]pyridine-3-carboxamide] | < 5 µM
CC1CCn2nc3c(c2C(=O)N1C)CN(C(=O)c1cc2ccccc2[nH]1)CC3 (stereo not shown) [Example 145, 4-(1H-indole-2-carbonyl)-12,13-dimethyl-4,8,9,13-tetraazatricyclo[7.5.0.0^2,7]tetradeca-1,7-dien-14-one] | < 5 µM
O=C(c1cc2ccccc2[nH]1)N1CCc2nn3c(c2C1)C(=O)N(CCOC(F)(F)F)C1(CC3)CC1 [Example 146, 4′-(1H-indole-2-carbonyl)-13′-[2-(trifluoromethoxy)ethyl]-4′,8′,9′,13′-tetraazaspiro[cyclopropane-1,12′-tricyclo[7.5.0.0^2,7]tetradecane]-1′,7′-dien-14′-one] | < 5 µM
O=C(c1cc2ccccc2[nH]1)N1CCc2nn3c(c2C1)C(=O)N(CC(F)F)C1(CC3)CC1 [Example 147, 13′-(2,2-difluoroethyl)-4′-(1H-indole-2-carbonyl)-4′,8′,9′,13′-tetraazaspiro[cyclopropane-1,12′-tricyclo[7.5.0.0^2,7]tetradecane]-1′,7′-dien-14′-one] | < 5 µM
O=C(c1cc2ccccc2[nH]1)N1CCc2nn3c(c2C1)C(=O)N(CC(F)(F)F)C1(CC3)CC1 [Example 148, 4′-(1H-indole-2-carbonyl)-13′-(2,2,2-trifluoroethyl)-4′,8′,9′,13′-tetraazaspiro[cyclopropane-1,12′-tricyclo[7.5.0.0^2,7]tetradecane]-1′,7′-dien-14′-one] | < 5 µM
COC(=O)CN1C(=O)c2c3c(nn2CCC12CC2)CCN(C(=O)c1cc2ccccc2[nH]1)C3 [Example 149, methyl 2-[4′-(1H-indole-2-carbonyl)-14′-oxo-4′, 8′,9′,13′-tetraazaspiro[cyclopropane-1,12′-tricyclo[7.5.0.0^2,7]tetradecane]-1′,7′-dien-13′-yl]acetate] | < 5 µM
